Read-outs that look alike come from different tables or passages of the source.
What was measured:
Ercc1^−/− MEFs = experiment: Cell proliferation / rescue of oxidative-stress-induced senescence in Ercc1−/− MEFs; assay type: cell-based; conditions: for EC50: read-out: Cell proliferation EC50
Source text: Cell survival in irradiation studies depends on complex biochemical pathways, possibly accounting for the complex correlation of nitroxide structure and radiation mitigation properties. Irradiation-induced cell death results from an accumulation of events that individually are not able to kill the cell, but which become lethal when added together. To develop a firmer basis for studying structural modifications, we assayed the ability to rescue cellular senescence induced by oxidative stress in Ercc1^−/− MEFs as a function of test agents (Table 5).
Ercc1^−/− MEFs completely lack a critical DNA repair factor, making these cells highly sensitive to genotoxic and oxidative stress. Growth of the Ercc1^−/− MEFs in 20% 02 results in cellular senescence as measured by senescence associated β-gal, γ-H2AX staining and p16 protein levels. The ability to rescue senescence, as measured by an increase in cell number, correlates with the inhibition of oxidative stress.

[1] = Ascorbic acid electron scavenging assay (disappearance of nitroxide ESR signal); assay type: biochemical; conditions: 0.5 μM nitroxide, nitroxide ESR signal after 8.5 min; for Signal Decrease (%) (a): 35 μM ascorbate; for Signal Decrease (%) (b): 280 μM ascorbate; for Signal Decrease (%) (c): 1.12 mM ascorbate
Source text: In contrast to the DPPH assay, which mainly addresses the radical scavenging/reducing properties of nitroxides and hydroxylamines, the reaction of nitroxides with ascorbic acid benchmarks their ability to act as oxidizing agents in their conversion to hydroxylamines, which is important to their protective function as electron scavengers in the mitochondrial electron transport chain. The electron acceptor potentials of various nitroxides were thus benchmarked in the presence of low, medium, and high concentrations of the electron donor ascorbate (Table 3). ESR was used to detect the characteristic triplet of the nitroxide vs the doublet of ascorbate radicals (see supplementary information), and the disappearance of the former and appearance of the latter was measured over 8.5 min.

[2] = test system: 32Dcl3 murine hematopoietic cells; experiment: Irradiation survival assay (colony formation) in 32Dcl3 cells; assay type: cell-based; conditions: for Do, before irradiation / ñ, before irradiation: 10 μM nitroxide for 1 h before irradiation, 0 to 8 Gy; for Do, before irradiation / ñ, before irradiation / Do, after irradiation / ñ, after irradiation: colonies after 7 d; for Do, after irradiation / ñ, after irradiation: cells irradiated, then placed in media containing 10 μM nitroxide; for protection of cells from irradiation (in words): given 1 h before irradiation, shown by increased D0
Source text: Irradiation survival assays were used to test the ability of selected nitroxide-conjugates to protect against, or mitigate, irradiation-induced damage of 32Dcl3 murine hematopoietic cells.

[3] = DPPH radical scavenging assay; assay type: biochemical; conditions: for EC50: EtOH, 100 μM DPPH, 30 min at 37° C.
Source text: The free radical reduction abilities of the nitroxides and nitroxide-conjugates were benchmarked by the DPPH (2,2-diphenyl-1-picrylhydrazyl) assay.

[4] = Stability of the free nitroxide on storage; assay type: physicochemical; conditions: after removal of the Boc group; storage at rt
Source text: Preparation of 3-amino-ABNO (12) was envisioned from the known ketone 21, which was easily accessible in one step from acetonedicarboxylic acid and glutaraldehyde (Scheme 1). Conversion of 21 to oxime 22, followed by reduction to the amine with nickel boride and N-Boc protection provided carbamate 23 in high yield. Removal of the benzyl group by catalytic hydrogenolysis and oxidation of the free secondary amine in the presence of urea-hydrogen peroxide complex (UHP) furnished the Boc-protected nitroxide 24.
A mixture of Boc-protected amine 3-Boc-amino-ABNO (24, 200 mg, 0.783 mmol) in a 4.0 N solution of HCl in 1,4-dioxane (3.3 mL, 13.2 mmol) was stirred at 0° C. for 1 h and at rt for an additional 2 h. The suspension was then filtered and the solid rinsed with cold dry Et2O, to give 167 mg of an off-white powder. It was dissolved in a minimum of 2.5 N aq. NaOH, and extracted with warm CHCl3 (7×). The combined organic layers were dried (K2CO3), filtered and concentrated in vacuo to afford 110 mg (90%) of a red oil. Upon high vacuum and/or storage at rt for not more than 1 h, the product started to loose the red color characteristic for a nitroxide and became pale yellow. Thus, the title compound is unstable.

With `CC(C)C[C@@H](/C=C/C(F)(F)C(=O)NC1CC(C)(C)N([O])C(C)(C)C1)NC(=O)OC(C)(C)C` [Compound 6] the EC50 (Ercc1^−/− MEFs) was 7.6 ± 1.4 nM, the “Signal Decrease (%) (a)” value [1] was 58.4% and the “Signal Decrease (%) (b)” value [1] was 94.1%.
For `CC(C)C[C@@H](/C=C/CC(=O)N[C@@H]1CC2CCC[C@@H](C1)N2[O])NC(=O)OC(C)(C)C` [Compound 26, (S,E)-N-(9-Azabicyclo[3.3.1]nonan-9-oxo-3-yl)-5-(tert-butoxycarbonylamino)-7-methyloct-3-enamide], the EC50 (Ercc1^−/− MEFs; Ercc1−/− MEFs, 20% O2) was 11.8 ± 2.7 nM, the “Signal Decrease (%) (a)” value [1] was 100% and the “Signal Decrease (%) (b)” value [1] was 100%. For the same molecule, the “Do, before irradiation” value [2] was 3.1 ± 0.6 Gy, the “ñ, before irradiation” value [2] was 1.0 ± 0.1 and the “Do, after irradiation” value [2] was 1.3 ± 0.1 Gy. For the same molecule, the “ñ, after irradiation” value [2] was 2.7 ± 0.7, the “protection of cells from irradiation (in words)” value (“protection of cells” below) [2] was “able to protect cells from multiple killing events” and the “DPPH radical scavenging activity (in words)” value [3] was “slightly higher EC50 values than their corresponding nitroxide substructures”.
In the case of `CC(C)C[C@@H](/C=C/CC(=O)NC1CC(C)(C)N([O])C(C)(C)C1)NC(=O)OC(C)(C)C` [JP4-039], the EC50 (Ercc1^−/− MEFs) is reported as 210 ± 15.2 nM, the “Signal Decrease (%) (a)” value [1] is reported as 29.7% and the “Signal Decrease (%) (b)” value [1] is reported as 81.4%. The “Do, before irradiation” value [2] was 2.3 ± 0.3 Gy, the “ñ, before irradiation” value [2] was 1.0 ± 0.1 and the “Do, after irradiation” value [2] was 1.2 ± 0.1 Gy. For the same molecule, the “ñ, after irradiation” value [2] was 3.5 ± 0.2, the “protection of cells” value [2] was “able to protect cells from multiple killing events” and the “DPPH radical scavenging activity (in words)” value [3] was “did not exhibit any significant activity”.
For 5-amino-TMIO [Compound 8], the EC50 (Ercc1^−/− MEFs; Ercc1−/− MEFs, 20% O2) was < 1 nM and the “Signal Decrease (%) (c)” value [1] was 40.3%.
For `CC(C)C[C@@H](/C=C/[C@H](Cc1ccccc1)C(=O)N1CCC[C@H]1C(=O)N[C@H](C(=O)N[C@@H](CCCNC(=O)OCc1ccccc1)C(=O)NC1CC(C)(C)N([O])C(C)(C)C1)C(C)C)NC(=O)OC(C)(C)C` [XJB-5-131], the EC50 (Ercc1^−/− MEFs; Ercc1−/− MEFs, 20% O2) was 212 ± 5.1 nM, the “Signal Decrease (%) (a)” value [1] was 76.7% and the “Signal Decrease (%) (b)” value [1] was 92.4%. For the same molecule, the “DPPH radical scavenging activity (in words)” value [3] was “did not exhibit any significant activity”.
In the case of `COc1cc(/C=C/C(=O)CC(=O)/C=C/c2ccc(O)c(OC)c2)ccc1O` [Curcumin, reference compound], the EC50 (Ercc1^−/− MEFs; Ercc1−/− MEFs, 20% O2) is reported as 1000 nM and the “rescue of senescence (in words)” value (Ercc1^−/− MEFs; used as negative control) is reported as “only very weak effects”.
In the case of `CC(C)C[C@@H](/C=C/CC(=O)NC1[C@@H]2CC3C[C@H]1C[C@](C)(C2)N3[O])NC(=O)OC(C)(C)C` (stereo partly shown) [Compound 33], the EC50 (Ercc1^−/− MEFs; Ercc1−/− MEFs, 20% O2) is reported as 5.3 ± 0.5 nM, the “Do, before irradiation” value [2] is reported as 2.6 ± 0.4 Gy and the “ñ, before irradiation” value [2] is reported as 1.0 ± 0.1. For the same molecule, the “Do, after irradiation” value [2] was 1.3 ± 0.1 Gy, the “ñ, after irradiation” value [2] was 2.5 ± 0.3 and the “protection of cells” value [2] was “able to protect cells from multiple killing events”.
For `CC1(C)CC(O)CC(C)(C)N1[O]` [Compound 9, 4-hydroxy-2,2,6,6-tetramethylpiperidine-N-oxyl, reference compound], the EC50 (Ercc1^−/− MEFs) was 229 ± 23.9 nM, the “Signal Decrease (%) (a)” value [1] was 35.7% and the “Signal Decrease (%) (b)” value [1] was 81%. The “Signal Decrease (%) (c)” value [1] was 100%.
`CC(C)C[C@H](/C=C/CC(=O)NC1CC(C)(C)N([O])C(C)(C)C1)NC(=O)OC(C)(C)C` [Compound 5] gave an EC50 (Ercc1^−/− MEFs) of 200 nM.
Molecule `CC(C)C[C@H](NC(=O)OC(C)(C)C)[C@@H]1C[C@H]1CC(=O)NC1CC(C)(C)N([O])C(C)(C)C1` [Compound 2] has an EC50 (Ercc1^−/− MEFs; Ercc1−/− MEFs, 20% O2) of 332 nM.
For `N[C@@H]1CC2CCC[C@@H](C1)N2[O]` [Compound 12, 3-Amino-9-azabicyclo[3.3.1]nonane N-oxyl], the “stability (in words)” value [4] was “unstable”.
With `O=C1O[C@H]([C@@H](O)CO)C(O)=C1O` [Ascorbic acid, reference compound] the EC50 [3] was 28 ± 5 µM.
With 6-Boc-amino-1-Me-AZADO [Compound 32] the EC50 (Ercc1^−/− MEFs; Ercc1−/− MEFs, 20% O2) was 62.2 nM, the “Signal Decrease (%) (a)” value [1] was 100% and the “Signal Decrease (%) (b)” value [1] was 100%. For the same molecule, the “DPPH radical scavenging activity (in words)” value [3] was “slightly higher EC50 values than their corresponding nitroxide substructures”.
`CC(C)C[C@@H](/C=C/CC(=O)NC1CC(C)(C)N([O])C(C)(C)C1)NC(=O)OCc1ccccc1` [Compound 1] gave an EC50 (Ercc1^−/− MEFs; Ercc1−/− MEFs, 20% O2) of 589 nM.
`CC1(C)CCCC(C)(C)N1O` [TEMPO-H, reference compound] gave an EC50 [3] of 79 ± 2 µM.
Work on `CC1(C)c2ccc(N)cc2C(C)(C)N1O` [Compound 8-H] yielded an EC50 [3] of 169 ± 7 µM.
With `CC(C)C[C@@H](/C=C/CC(=O)Nc1ccc2c(c1)C(C)(C)N([O])C2(C)C)NC(=O)OC(C)(C)C` [Compound 20] the EC50 (Ercc1^−/− MEFs; Ercc1−/− MEFs, 20% O2) was 17.6 ± 1.4 nM, the “Signal Decrease (%) (b)” value [1] was 15.5% and the “Signal Decrease (%) (c)” value [1] was 77.4%. The “Do, before irradiation” value [2] was 1.8 ± 0.1 Gy, the “ñ, before irradiation” value [2] was 1.0 ± 0.1 and the “Do, after irradiation” value [2] was 1.4 ± 0.1 Gy. For the same molecule, the “ñ, after irradiation” value [2] was 2.4 ± 0.2, the “protection of cells” value [2] was “able to protect cells from multiple killing events” and the “DPPH radical scavenging activity (in words)” value [3] was “slightly higher EC50 values than their corresponding nitroxide substructures”.
In the case of `CC(C)(C)OC(=O)NC1CC2CCCC(C1)N2O` (stereo not shown) [Compound 24, 3-(tert-Butoxycarbonylamino)-9-azabicyclo[3.3.1]nonane N-oxyl], the EC50 (Ercc1^−/− MEFs; Ercc1−/− MEFs, 20% O2) is reported as 40 nM, the “Signal Decrease (%) (a)” value [1] is reported as 100% and the “Signal Decrease (%) (b)” value [1] is reported as 100%.
In the case of `CC(C)C[C@@H](/C=C/CC(=O)NC1CC(C)(C)N([O])C(C)(C)C1)NP(=O)(c1ccccc1)c1ccccc1` [Compound 3], the EC50 (Ercc1^−/− MEFs) is reported as 70.4 nM.
With `CC(C)C[C@H](NC(=O)OCc1ccccc1)[C@@H]1C[C@H]1CC(=O)NC1CC(C)(C)N([O])C(C)(C)C1` [Compound 4] the EC50 (Ercc1^−/− MEFs; Ercc1−/− MEFs, 20% O2) was 231 nM.
